A word on the IC50: it is the midpoint of a concentration-inhibition curve.

The target in the assay is T1, USP7 (Homo sapiens, UniProt Q93009).
T1 construct: The USP7 construct was PCR amplified and cloned into a pFLAG-CMV-6a vector (Sigma-Aldrich) with an N-terminal FLAG tag; made in house; host or cells: HEK293T
T1 sequence (Q93009 whole entry): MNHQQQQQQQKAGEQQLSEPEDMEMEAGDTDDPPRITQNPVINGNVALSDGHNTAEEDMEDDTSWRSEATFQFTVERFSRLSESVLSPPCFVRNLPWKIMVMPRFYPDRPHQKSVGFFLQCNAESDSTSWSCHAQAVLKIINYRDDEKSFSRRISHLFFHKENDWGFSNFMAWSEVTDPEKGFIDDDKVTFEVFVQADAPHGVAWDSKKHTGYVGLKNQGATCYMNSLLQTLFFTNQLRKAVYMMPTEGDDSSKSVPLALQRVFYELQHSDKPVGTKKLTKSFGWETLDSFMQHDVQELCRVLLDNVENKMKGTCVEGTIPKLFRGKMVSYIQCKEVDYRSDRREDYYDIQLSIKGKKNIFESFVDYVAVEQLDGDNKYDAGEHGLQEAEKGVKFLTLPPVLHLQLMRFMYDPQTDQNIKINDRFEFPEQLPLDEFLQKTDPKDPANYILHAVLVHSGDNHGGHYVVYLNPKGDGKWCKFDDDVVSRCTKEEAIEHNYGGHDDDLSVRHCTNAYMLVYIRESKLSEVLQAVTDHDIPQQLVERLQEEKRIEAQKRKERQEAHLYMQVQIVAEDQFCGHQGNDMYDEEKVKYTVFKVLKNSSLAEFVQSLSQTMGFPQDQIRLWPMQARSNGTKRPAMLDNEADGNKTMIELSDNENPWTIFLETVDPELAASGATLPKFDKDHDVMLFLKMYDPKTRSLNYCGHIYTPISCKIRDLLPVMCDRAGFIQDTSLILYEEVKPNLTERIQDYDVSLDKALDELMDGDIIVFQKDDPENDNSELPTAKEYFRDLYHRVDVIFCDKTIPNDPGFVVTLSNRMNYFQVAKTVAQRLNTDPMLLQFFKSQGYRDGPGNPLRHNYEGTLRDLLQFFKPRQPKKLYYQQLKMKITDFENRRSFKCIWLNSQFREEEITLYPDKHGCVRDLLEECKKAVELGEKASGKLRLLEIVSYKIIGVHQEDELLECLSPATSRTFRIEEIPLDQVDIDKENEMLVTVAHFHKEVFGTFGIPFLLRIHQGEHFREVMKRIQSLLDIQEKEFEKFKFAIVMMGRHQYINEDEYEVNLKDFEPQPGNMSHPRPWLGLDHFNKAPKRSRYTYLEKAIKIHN
In words: USP7 biochemical IC50 assay (fluorescence polarisation, TAMRA labelled peptide linked to ubiquitin via an iso-peptide bond). The settings on record: 30 min pre-incubation of enzyme and compound, read after 2 hr incubation at room temperature, read-out: IC50 range. The gist of the method:
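Fluorescence polarisation at 540 nm excitation/590 nm emission, read immediately and after 2 hr at room temperature, following addition of 50 nM TAMRA-labelled iso-peptide ubiquitin substrate.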
Background: Fluorescence polarisation rises when a labelled molecule tumbles more slowly, as on binding a larger partner.
On to `N#CN1Cc2cccc(NC(=O)c3ccc(N4CCOCC4)s3)c2C1` [Example 93, N-(2-cyanoisoindolin-4-yl)-5-morpholinothiophene-2-carboxamide], for which the IC50 was in the range of 1 to 10 µM.
Consider `CN1CCC(C(=O)Nc2ccc3c(c2)CN(C#N)C3)C1` (centres unmarked) [Example 94, N-(2-cyanoisoindolin-5-yl)-1-methylpyrrolidine-3-carboxamide], for which the IC50 lay in the range of 1 to 10 µM.
As to `N#CN1Cc2cccc(C(=O)NCc3ccccc3)c2C1` [Example 95, N-benzyl-2-cyanoisoindoline-4-carboxamide], the IC50 was in the range of 10 to 30 µM.
With `CC(=O)Nc1ccc2c(c1-c1ccccc1)CN(C#N)C2` [Example 96, N-(2-cyano-4-phenylisoindolin-5-yl)acetamide], the IC50 lay in the range of 1 to 10 µM.
For `Cn1cc(-c2nnc(-c3ccccc3)c3c2CN(C#N)C3)cn1` [Example 97, 1-(1-methyl-1H-pyrazol-4-yl)-4-phenyl-5,7-dihydro-6H-pyrrolo[3,4-c]pyridazine-6-carbonitrile], the IC50 is 10 to 30 µM.
`COC(=O)c1cc2c(c(-c3ccccc3)c1)CN(C#N)C2` [Example 98, methyl 2-cyano-7-phenylisoindoline-5-carboxylate]: the IC50 lay within 1 to 10 µM.
Regarding `N#CN1Cc2ncnc(N3CCN(c4ccc(F)cc4F)CC3)c2C1` [Example 99, 4-(4-(2,4-difluorophenyl)piperazin-1-yl)-5H-pyrrolo[3,4-d]pyrimidine-6(7H)-carbonitrile], the IC50 fell in the range of 10 to 30 µM.
`N#CN1Cc2ncnc(N3Cc4ccccc4C3)c2C1` [Example 100, 4-(isoindolin-2-yl)-5,7-dihydro-6H-pyrrolo[3,4-c]pyrimidine-6-carbonitrile]: the IC50 lay within 1 to 10 µM.
As for `N#CN1Cc2ncnc(N3CCC(Oc4cccnc4)CC3)c2C1` [Example 101, 4-(4-(pyridin-3-yloxy)piperidin-1-yl)-5,7-dihydro-6H-pyrrolo[3,4-c]pyrimidine-6-carbonitrile], the IC50 fell in the range of 10 to 30 µM.
Take `COc1cccc(OC2CCN(c3ncnc4c3CN(C#N)C4)CC2)c1` [Example 102, 4-(4-(3-methoxyphenoxy)piperidin-1-yl)-5,7-dihydro-6H-pyrrolo[3,4-d]pyrimidine-6-carbonitrile]: the IC50 lay within 1 to 10 µM.
In the case of `N#CN1Cc2ncnc(N3CCC(Oc4ccccc4C(N)=O)CC3)c2C1` [Example 103, 2-((1-(6-cyano-6,7-dihydro-5H-pyrrolo[3,4-d]pyrimidin-4-yl)piperidin-4-yl)oxy)benzamide], the IC50 was 10 to 30 µM.
Then `CC(=O)Nc1nc2c(c(-c3ccccc3)n1)CN(C#N)C2` [Example 104, N-(6-cyano-4-phenyl-6,7-dihydro-5H-pyrrolo[3,4-c]pyrimidin-2-yl)acetamide], with 1 to 10 µM; and `CC(=O)Nc1nc2c(c(-c3cccc(C#N)c3)n1)CN(C#N)C2` [Example 105, N-(6-cyano-4-(3-cyanophenyl)-6,7-dihydro-5H-pyrrolo[3,4-c]pyrimidin-2-yl)acetamide], with 1 to 10 µM.
On to `CC(=O)Nc1nc2c(c(-c3cccc(OC(F)(F)F)c3)n1)CN(C#N)C2` [Example 106, N-(6-cyano-4-(3-(trifluoromethoxy)phenyl)-6,7-dihydro-5H-pyrrolo[3,4-d]pyrimidin-2-yl)acetamide], for which the IC50 lay within 1 to 10 µM.
With `CC(=O)Nc1nc2c(c(-c3cnn(C)c3)n1)CN(C#N)C2` [Example 107, N-(6-cyano-4-(1-methyl-1H-pyrazol-4-yl)-6,7-dihydro-5H-pyrrolo[3,4-d]pyrimidin-2-yl)acetamide], the IC50 was 10 to 30 µM.
On to `CC(=O)Nc1cccc(-c2nc(NC(C)=O)nc3c2CN(C#N)C3)c1` [Example 108, N-(3-(2-acetamido-6-cyano-6,7-dihydro-5H-pyrrolo[3,4-d]pyrimidin-4-yl)phenyl)acetamide], for which the IC50 is 1 to 10 µM.
As for `CC(=O)Nc1nc2c(c(-c3cccc(NS(C)(=O)=O)c3)n1)CN(C#N)C2` [Example 109, N-(6-cyano-4-(3-(methylsulfonamido)phenyl)-6,7-dihydro-5H-pyrrolo[3,4-d]pyrimidin-2-yl)acetamide], the IC50 lay within 1 to 10 µM.
With `N#CN1Cc2nc(N[C@H]3CC[C@H](O)CC3)nc(-c3ccccc3)c2C1` [Example 110, 2-(((1R,4R)-4-hydroxycyclohexyl)amino)-4-phenyl-5H-pyrrolo[3,4-d]pyrimidine-6(7H)-carbonitrile], the half-inhibitory concentration (IC50) was 1 to 10 µM.
With `N#CN1Cc2nc(NCC3CCOCC3)nc(-c3ccccc3)c2C1` [Example 111, 4-phenyl-2-(((tetrahydro-2H-pyran-4-yl)methyl)amino)-5,7-dihydro-6H-pyrrolo[3,4-d]pyrimidine-6-carbonitrile], the IC50 is 1 to 10 µM.
Turning to `Cn1cc(Nc2nc3c(c(-c4ccccc4)n2)CN(C#N)C3)cn1` [Example 112, 2-((1-methyl-1H-pyrazol-4-yl)amino)-4-phenyl-5,7-dihydro-6H-pyrrolo[3,4-d]pyrimidine-6-carbonitrile], the IC50 was 1 to 10 µM.
In the case of `N#CN1Cc2nc(NCc3ncccn3)nc(-c3ccccc3)c2C1` [Example 113, 4-phenyl-2-((pyrimidin-2-ylmethyl)amino)-5,7-dihydro-6H-pyrrolo[3,4-d]pyrimidine-6-carbonitrile], the IC50 was in the range of 1 to 10 µM.
`N#CN1Cc2nc(NCCc3ccccn3)nc(-c3ccccc3)c2C1` [Example 114, 4-phenyl-2-((2-(pyridin-2-yl)ethyl)amino)-5,7-dihydro-6H-pyrrolo[3,4-d]pyrimidine-6-carbonitrile]: the 50% inhibitory concentration (IC50) is 1 to 10 µM.
`N#CN1Cc2nc(NC3CCCc4ccccc43)nc(-c3ccccc3)c2C1` (centres unmarked) [Example 115, 4-phenyl-2-((1,2,3,4-tetrahydronaphthalen-1-yl)amino)-5,7-dihydro-6H-pyrrolo[3,4-d]pyrimidine-6-carbonitrile]: the IC50 is 10 to 30 µM.
As for `N#CN1Cc2nc(Nc3ccccc3)nc(-c3ccccc3)c2C1` [Example 116, 4-phenyl-2-(phenylamino)-5,7-dihydro-6H-pyrrolo[3,4-d]pyrimidine-6-carbonitrile], the IC50 lay within 1 to 10 µM.
Take `N#CN1Cc2nc(NCc3ccccn3)nc(-c3ccccc3)c2C1` [Example 117, 4-phenyl-2-((pyridin-2-ylmethyl)amino)-5,7-dihydro-6H-pyrrolo[3,4-d]pyrimidine-6-carbonitrile]: the IC50 was 1 to 10 µM.
With `N#CN1Cc2nc(NCc3cccnc3)nc(-c3ccccc3)c2C1` [Example 118, 4-phenyl-2-((pyridin-3-ylmethyl)amino)-5,7-dihydro-6H-pyrrolo[3,4-d]pyrimidine-6-carbonitrile] the figure was 1 to 10 µM; with `N#CN1Cc2nc(NCc3cncs3)nc(-c3ccccc3)c2C1` [Example 119, 4-phenyl-2-((thiazol-5-ylmethyl)amino)-5,7-dihydro-6H-pyrrolo[3,4-d]pyrimidine-6-carbonitrile], 1 to 10 µM; with `N#CN1Cc2nc(NCCO)nc(-c3ccccc3)c2C1` [Example 120, 2-((2-hydroxyethyl)amino)-4-phenyl-5,7-dihydro-6H-pyrrolo[3,4-d]pyrimidine-6-carbonitrile], 1 to 10 µM.
For `N#CN1Cc2nc(NCc3ccco3)nc(-c3ccccc3)c2C1` [Example 121, 2-((furan-2-ylmethyl)amino)-4-phenyl-5,7-dihydro-6H-pyrrolo[3,4-d]pyrimidine-6-carbonitrile], the IC50 lay in the range of 10 to 30 µM.

Source of the values: US10683269B2 (MISSION THERAPEUTICS LIMITED, priority 2016, dated 2020).
